Experimental data as given in US11576913B2 (priority 2018, dated 2023).
“Also recorded” adds a separate entry of the source. Like-named read-outs stand apart in the source and are kept apart here.

Columns and labels:
clinical = type: in vivo, human; conditions: for Fe, Mean (CV %): unchanged in urine; for CLr, Mean / Tmax / half-life / AUC / CL renal / Cmax: human, in vivo; for half-life: read-out: T1/2, Mean (CV %) (converted); for AUC / Cmax: Mean (CV %); for CL renal: CLr, Mean
Description: This study was designed to evaluate the safety and pharmacokinetic (“PK”) interactions between Compound (1C) and alcohol in healthy subjects. […] The study was designed as a single-site, randomized, single-dose, double-blinded, placebo-controlled crossover study, and 46 subjects completed treatment as part of the study.
The dose of alcohol at 0.7 g/kg was consistent with the NIAAA definition of binge drinking, which can lead to blood alcohol concentration of approximately 0.08 g/dL. In the United States this is generally considered the level at which a person is legally impaired. In addition, such dose level has been studied in previously completed relevant alcohol interaction study in which the safety and tolerability were established in a similar population (Hong Sun et al. “Psychomotor effects, pharmacokinetics and safety of the orexin receptor antagonist suvorexant administered in combination with alcohol in healthy subjects.” Journal of Psychopharmacology 2015, Vol. 29(11) 1159-1169).
Briefly, blinded alcoholic beverage or placebo beverage was consumed over a 20- to 30-minute period. The beverage was divided into 3 parts, with approximately ⅓ administered (consumed to completion by subject at their own pace) every 10 minutes, […], in order to control for drinking rate.
Subjects swallowed Compound (1C) with the alcoholic beverage, with small sips of water as needed if the subject could not drink the alcohol quickly enough to consume the alcohol. […] A mouthwash with water was provided before and at the end of dosing. A mouth check was performed to verify that the Compound (1C) doses administered are swallowed. Vital signs and oxygen saturation, SpO2, (FIG. 26) were collected for evaluation by the investigator.
AUCt Area under the plasma concentration-time curve from hour 0 to the last measurable plasma concentration, calculated by the linear trapezoidal method.
AUCinf Area under the plasma concentration-time curve extrapolated to infinity:
Where Ct is the last measurable plasma concentration and […] is the apparent terminal phase rate constant;
Cmax Maximum observed plasma concentration
Tmax Time to maximum plasma concentration
T1/2 Apparent terminal phase half-life: T1/2=(ln2)/λz

[1] = tested on: healthy, non-dependent, recreational sedative users; experiment: Human abuse potential study, Drug Liking VAS; type: in vivo; conditions: for Drug Liking VAS - EMAX LSMean: N = 50, 100 point bipolar scale
Procedure: This study was designed as a randomized, single-dose, double-blinded, double dummy, crossover study. The study population was healthy, nondependent recreational polydrug users with a history of Central Nervous System (CNS) depressant use.
Subjects were screened no more than 28 days before check-in of period 1. Study drug was administered in each period according to the study randomization schedule. During Qualification, there was a minimum 24 hour washout period between each study drug administration. During the Treatment phase, there was a minimum 48-hour washout period between each study drug administration. Subjects were confined to the unit the day prior to, and for at least approximately 24 hours following, study drug administration during each period. If subjects were discharged between treatment periods, subjects returned to the unit the day prior to dosing.
The Qualification Phase was designed to ensure that polydrug abusing subjects with self-reported recreational CNS depressant/sedative drug experience were able to tolerate and discriminate between orally administered triazolam tablets and placebo as well as to report positive subjective effects of the drug in a controlled laboratory setting. This phase was also used to exclude “placebo responders”, i.e., subjects who report subjective effects of placebo. This phase also helped familiarize subjects with, and trained them in the use of, various scales and questionnaires that measure subjective effects.
The comparators in an abuse potential study are typically controlled substances from the same pharmacologic class as the investigational drug. However, Compound (1C) is a novel drug class for which no controlled substances/drugs of abuse are available for comparison. […] There was no evidence of other effects of interest to abusers, such as perceptual disturbances or stimulation. […] Placebo control was used to establish the frequency and magnitude of changes in clinical endpoints that may occur in the absence of active treatment as well as to minimize subject and investigator bias.
In all of the study phases, treatments were blinded to the greatest extent possible to reduce potential bias during data collection and evaluation of clinical endpoints. Because study subjects were recreational drug users and familiar with the effects of the drug substances being studied, the double-dummy technique was be used in the Treatment Phase to maintain blinding. Subjects received tablets orally in each treatment period. Placebo was matched in size and shape to each of the tablet types, and a method to blind subjects will be employed.
For each phase, subjects received treatments according to the randomization schema. During the Treatment Phase, subjects were be randomized to 1 of sequences in a 6×6 Williams square crossover design.
Compound (1C) was administered orally in an immediate release tablet comprising the pharmaceutically acceptable excipients croscarmellose sodium (FMC Health and Nutrition, Philadelphia, Pa.), hydroxypropylcellulose (Ashland Inc., Covington, Ky.), microcrystalline cellulose (Dupont, Chicago, Ill.), mannitol (SPI Pharma, Wilmington, Del.), magnesium stearate (PlusPharma Inc., Vista, Calif.), and sodium lauryl sulfate (BASF Corp, Upper St. Clair, Pa.). […] Placebo tablets matching the Compound (1C) tablets were orally administered in the same way. The placebo tablets comprised the above-described pharmaceutically acceptable excipients but with no Compound (1C). Triazolam was administered at a dose of 0.5 or 1 mg. Trial endpoints are provided below.
Peak Maximum Effect (Emax) for Drug Liking (“at this moment”) visual analog scale (“VAS”), was measured by study participants providing a score on a 100 point bipolar scale with 100 as strong liking, 50 as the neutral point of neither liking nor disliking, and 0 as strong disliking. […]

O=C(O)c1nc2ccccc2n([C@H]2C[C@H]3CCC[C@@H](C2)N3C2CC3CCCC(C3)C2)c1=O (stereo partly drawn) [Compound (1C)]
Mean % Dose Excreted Unchanged (Cohort 1, 3 mg): 89%
Mean Total Amount Excreted Unchanged (Cohort 1, 3 mg): 2.66 mg
Mean % Dose Excreted Unchanged (Cohort 2, 10 mg): 70%
Mean Total Amount Excreted Unchanged (Cohort 2, 10 mg): 6.95 mg
Mean % Dose Excreted Unchanged (Cohort 3, 30 mg): 28%
Mean Total Amount Excreted Unchanged (Cohort 3, 30 mg): 8.37 mg
Fe, Mean (CV %) (clinical; 2 mg + EtOH (0.7 g/kg)): 84 (33) %
Urine Fe, Mean (clinical; 2 mg Alone (N = 48)): 80.7%
Fe, Mean (CV %) (clinical; 2 mg alone): 81 (12) %
PK profile of ethanol on co-administration of Compound (1C) (clinical; 2 mg or 6 mg with ethanol vs ethanol with placebo, FIG. 24): not affected
Urine Fe, Mean (clinical; 2 mg with Alcohol (N = 46)): 83.6%
Fe, Mean (CV %) (clinical; 6 mg + EtOH (0.7 g/kg)): 80 (20) %
Urine Fe, Mean (clinical; 6 mg Alone (N = 47)): 80.8%
Fe, Mean (CV %) (clinical; 6 mg alone): 81 (10) %
Urine Fe, Mean (clinical; 6 mg with Alcohol (N = 48)): 79.6%
effect of alcohol on the PK profile of Compound (1C) (clinical; 2 and 6 mg with 0.7 g/kg ethanol): does not alter the PK profile
CLr, Mean (clinical; 2 mg): 12.7 L/h
Tmax (clinical; 2 mg): 1.7 h
half-life (clinical; 2 mg + EtOH (0.7 g/kg)): 3.9 h
half-life (clinical; 2 mg, 2 mg alone): 4 h
AUC (clinical; 2 mg): 130 ng·h/mL
CL renal (clinical; 2 mg): 210 mL/min
Cmax (clinical; 2 mg): 28.2 ng/mL
CLr, Mean (clinical; 6 mg): 12.3 L/h
Tmax (clinical; 6 mg): 1.9 h
half-life (clinical; 6 mg + EtOH (0.7 g/kg)): 4.5 h
half-life (clinical; 6 mg, 6 mg alone): 4.5 h
AUC (clinical; 6 mg): 402 ng·h/mL
CL renal (clinical; 6 mg): 198 mL/min
Cmax (clinical; 6 mg): 78.3 ng/mL
Drug Liking VAS - EMAX Diff from Placebo LSMean ([1]; 1 mg): 3.0 points
Drug liking compared with Triazolam 0.5 and 1 mg ([1]; 1 mg): statistically smaller; also recorded: statistically less; also recorded: (1C) 1 mg was significantly lower than
Drug liking compared with placebo (words) ([1]; 1 mg): not significantly greater than placebo; also recorded: placebo was similar to placebo (upper bound
Drug Liking VAS - EMAX LSMean ([1]; 1 mg single oral dose): 58.1
Drug Liking VAS - EMAX Diff from Placebo LSMean ([1]; 6 mg): 17.7 points
Drug liking compared with Triazolam 0.5 and 1 mg ([1]; 6 mg): not statistically different
Drug liking compared with placebo (words) ([1]; 6 mg): greater drug liking than placebo; also recorded: significantly greater
Drug Liking VAS - EMAX LSMean ([1]; 6 mg single oral dose): 72.82
Drug Liking VAS - EMAX Diff from Placebo LSMean ([1]; 10 mg): 21.2 points
Drug liking compared with Triazolam 0.5 and 1 mg ([1]; 10 mg): not statistically different
Drug liking compared with placebo (words) ([1]; 10 mg): greater drug liking than placebo; also recorded: significantly greater
Drug Liking VAS - EMAX LSMean ([1]; 10 mg single oral dose): 76.4
Drug Liking VAS - EMAX, Triazolam 0.5 mg - Cmpd. (1C) LSMean ([1]; Cmpd. (1C) 1 mg): 17.4
Drug Liking VAS - EMAX, Triazolam 1 mg - Cmpd. (1C) LSMean ([1]; Cmpd. (1C) 1 mg): 20.5
Drug Liking VAS - EMAX, Triazolam 0.5 mg - Cmpd. (1C) LSMean ([1]; Cmpd. (1C) 6 mg): 2.7
Drug Liking VAS - EMAX, Triazolam 1 mg - Cmpd. (1C) LSMean ([1]; Cmpd. (1C) 6 mg): 5.8
Drug Liking VAS - EMAX, Triazolam 0.5 mg - Cmpd. (1C) LSMean ([1]; Cmpd. (1C) 10 mg): −0.8
Drug Liking VAS - EMAX, Triazolam 1 mg - Cmpd. (1C) LSMean ([1]; Cmpd. (1C) 10 mg): 2.3
